Test results as given in patent publication US11596644B2, “Method for treating post-prandial hypoglycemia” (AVOLYNT, priority 2018, dated 2023).

What was measured:
rat SGLT2 = biological target: T1, rat SGLT2 (Rattus norvegicus, UniProt P53792); assay: Inhibition of radiolabeled α-MG uptake into COS-7 cells transfected with rat SGLT2 (Dixon plot); format: cell-based; settings: α-MG 0.3 and 1 mM
T1 construct: expressed in transfected cells; host or cells: COS-7
T1 sequence (P53792 1-670): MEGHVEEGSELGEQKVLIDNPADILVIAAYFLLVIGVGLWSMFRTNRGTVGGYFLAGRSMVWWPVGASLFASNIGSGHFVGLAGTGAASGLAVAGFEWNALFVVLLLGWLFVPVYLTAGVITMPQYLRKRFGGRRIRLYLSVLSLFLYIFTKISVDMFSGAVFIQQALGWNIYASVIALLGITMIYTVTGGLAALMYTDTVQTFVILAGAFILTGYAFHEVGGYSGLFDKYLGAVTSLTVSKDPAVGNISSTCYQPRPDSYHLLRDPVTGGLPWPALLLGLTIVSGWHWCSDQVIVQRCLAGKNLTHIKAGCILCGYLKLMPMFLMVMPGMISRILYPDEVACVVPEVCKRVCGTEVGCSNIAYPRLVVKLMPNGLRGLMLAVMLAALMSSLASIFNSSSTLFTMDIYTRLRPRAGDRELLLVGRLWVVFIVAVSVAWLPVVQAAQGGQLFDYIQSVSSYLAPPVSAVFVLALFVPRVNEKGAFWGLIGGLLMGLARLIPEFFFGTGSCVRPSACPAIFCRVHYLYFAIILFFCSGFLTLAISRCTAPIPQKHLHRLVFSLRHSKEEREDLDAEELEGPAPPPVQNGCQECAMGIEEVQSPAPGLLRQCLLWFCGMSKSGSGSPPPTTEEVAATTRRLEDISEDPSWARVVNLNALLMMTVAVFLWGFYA
Experimental: Selective inhibition study. Inhibition constants (Ki) of mizagliflozin for rat and human SGLT1 and SGLT2 were determined measuring concentration-dependent effects of test compound on uptake of radiolabeled methyl-α-D-glucopyranoside (α-MG) into COS-7 cells transiently transfected with cloned SGLT1 or SGLT2. Mizagliflozin was assessed at concentrations from 1 to 30 μM and 3 to 100 μM for human and rat SGLT2, respectively. It was assessed at concentrations from 30 nM to 1 μM and 10 to 30 nM for human and rat SGLT1, respectively. α-MG test concentrations were 0.3 and 1 mM. Data were analyzed and Ki determined using Dixon plots of initial transport rates. […] Inhibition constants were also determined for human SGLT1 and SGLT2.

[1] = tested on: normal Sprague Dawley rats; assay: Mixed carbohydrate tolerance test in normal rats; format: in vivo, rat
Experimental: Study on normal rats. The efficacy of mizagliflozin (decreasing plasma glucose levels) in normal Sprague Dawley rats was determined in a mixed carbohydrate tolerance test. Normal rats were fasted for 16 hours and then given an oral loading dose of 2.0 g/kg of mixed carbohydrate (soluble starch:sucrose:lactose monohydrate=6:3:1). Mizagliflozin (KGA-3235 sebacate), or water as the vehicle control, was then administered as a single oral dose to groups of male rats (n=8/group) at doses of 0.03, 0.1, 0.3, and 1 mg/kg. Voglibose, a glucosidase inhibitor similar to acarbose, was used as a positive control and was administered as a single oral dose to male rats (n=8/group) at dose levels of 0.1, 0.3 and 1 mg/kg. Blood samples were collected just prior to loading with mixed carbohydrate and at 0.5, 1, 2, 3, 4, and 6 hours after loading.

[2] = tested on: STZ-induced diabetic rats; assay: Mixed carbohydrate tolerance test in STZ-induced diabetic rats (Example 3); format: in vivo, rat; settings: mixed carbohydrate 2.0 g/kg
Experimental: Study in diabetic rats. Mizagliflozin was tested in a rat model for diabetes and efficacy, as measured by a relative decrease in plasma glucose, was determined using a mixed carbohydrate tolerance test. Diabetic model rats were prepared by intravenous administration of streptozotocin (STZ) to induce diabetes. Seven days after STZ administration, rats were fasted for 16 hours and then given an oral loading dose of 2.0 g/kg of mixed carbohydrate (soluble starch:sucrose:lactose monohydrate=6:3:1). Mizagliflozin, or water as the vehicle control, was then administered as a single oral dose to groups of male rats (n=8/group) at doses of 0.01, 0.03, 0.1, and 0.3 mg/kg. Another control group was given vehicle and consisted of normal male Sprague Dawley rats that were not administered STZ. Voglibose was also administered as a single oral dose to male rats (n=8/group) at dose levels of 0.03, 0.1 and 0.3 mg/kg. Blood samples were collected just prior to loading with mixed carbohydrate and at 0.5, 1, 2, 3, 4, and 6 hours after loading. Plasma glucose concentrations were determined and ΔAUC0-1 h for plasma glucose was calculated.

[3] = tested on: STZ-induced diabetic rats; assay: Oral glucose tolerance test in STZ-induced diabetic rats (Example 4); format: in vivo, rat
Experimental: Study in diabetic rats using oral glucose tolerance test. Efficacy of mizagliflozin was tested in a rat model for diabetes using an oral glucose tolerance test (OGTT). Diabetic model rats were prepared by intravenous administration of STZ to induce diabetes. Seven days after STZ administration, rats were fasted for 16 hours and then given an oral loading dose of 2.0 g/kg of glucose. Mizagliflozin, or water as the vehicle control, was then administered as a single oral dose to groups of male rats (n=8/group) at doses of 0.03, 0.1, 0.3, and 1 mg/kg. Another control group was given vehicle and consisted of normal male Sprague Dawley rats that were not administrated STZ. Voglibose was also administered as a single oral dose to male rats (n=8/group) at dose levels of 0.1, 0.3 and 1 mg/kg. Blood samples were collected just prior to loading with mixed carbohydrate and at 0.5, 1, 2, 3, 4, and 6 hours after loading. Plasma glucose concentrations were determined and ΔAUC0-1 h for plasma glucose was calculated.

SMILES	Ki (rat SGLT2) [nM]	ED50 ([1]; Rattus norvegicus, read-out: ED50 calculated from mean ΔAUC0-1 h (% of control), mixed carbohydrate 2.0 g/kg, single oral dose) [mg/kg]	ΔAUC0-1 h of plasma glucose versus vehicle control ([1]; mixed carbohydrate 2.0 g/kg)	ΔAUC0-1 h of plasma glucose versus vehicle control [2]	ΔAUC0-1 h relative to control group ([3]; OGTT, maximum dose 1 mg/kg)	ΔAUC0-1 h of plasma glucose versus vehicle control ([3]; glucose 2.0 g/kg)
O=C(CCc1ccc(O)cc1)c1c(O)cc(O)cc1O[C@@H]1O[C@H](CO)[C@@H](O)[C@H](O)[C@H]1O [phlorizin, reference compound]	41.1	–	–	–	–	–
OCC(CO)N[C@H]1C[C@](O)(CO)[C@@H](O)[C@H](O)[C@H]1O [voglibose, reference compound]	–	0.32	significant decrease	significant decrease	not half or less than half that in the control group	significant decrease
